Data as given in patent publication US8916551B2, “Heterocyclic compound and use thereof” (Takeda Pharmaceutical Company Limited, priority 2010, dated 2014).

Test system: methamphetamine (MAP)-induced hyperlocomotion in mice
Experiment: Inhibition of methamphetamine (MAP)-induced hyperlocomotion
Type: in vivo
Details: male ICR mice; compound 10 mg/kg p.o. 60 min before MAP 2 mg/kg s.c.; counts 120 min after MAP
Description: Male ICR mice were supplied by CLEA Japan, Inc (Japan). After arrival to the vivarium, animals were allowed a minimum of 1 week for acclimation. They were housed under a 12:12-h light/dark cycle in a temperature- and humidity-controlled laboratory and allowed food and water ad libitum.
A test compound was suspended in 0.5% methylcellulose in distilled water and orally administered (p.o.). Methamphetamine (Dainippon Sumitomo Pharma Co., Ltd.) was dissolved in saline and subcutaneously administered (s.c.). All drugs were dosed in a volume of 10 mL/kg body weight for mice.
The widely used animal models of psychosis have been the measurement of the extent of hyperlocomotion induced by psychostimulants (e.g., amphetamine, cocaine, methamphetamine, MK-801 and phencyclidine) in rodents (Psychopharmacology 1999, vol. 145: 237-250). 4 compounds (A, B, C, D) were tested for its ability to antagonize MAP-induced hyperlocomotion in mice. Male ICR mice were habituated in the locomotor chambers with infrared sensors (BrainScienceldea Co., Ltd. Japan) to the experiment. After the habituation, animals were treated with either vehicle or the compounds (10 mg/kg, p.o.), and MAP (2 mg/kg, s.c.) was administrated 60 min later. Locomotion activities were measured, and accumulated counts (120 min after administration of MAP) were calculated in each treatment group. All data were represented as means plus the standard errors of the means (n=3-9) and analyzed using Student's t-test with significance set at **P<0.01 and ***P<0.001 or Welch's t-test with significance set at ^$P<0.05, ^$$P<0.01 and ^$$$P<0.001.

CC1=CN2CCS(=O)(=O)N=C2C(c2ccc(OC3CCCCC3)cc2)=N1 [C, 9-[4-(cyclohexyloxy)phenyl]-7-methyl-3,4-dihydropyrazino[2,1-c][1,2,4]thiadiazine 2,2-dioxide]
inhibition of MAP-induced hyperlocomotion (accumulated locomotion counts 0-120 min): significant inhibition

O=S1(=O)CCN2C=CC=C(c3ccc(Oc4ccccc4)cc3)C2=N1 [A, 9-(4-phenoxyphenyl)-3,4-dihydropyrido[2,1-c][1,2,4]thiadiazine 2,2-dioxide]
inhibition of MAP-induced hyperlocomotion (accumulated locomotion counts 0-120 min): significant inhibition

Cc1ccc(Oc2ccc(C3=CC=CN4CCS(=O)(=O)N=C34)cc2)cc1 [B, 9-[4-(4-methylphenoxy)phenyl]-3,4-dihydropyrido[2,1-c][1,2,4]thiadiazine 2,2-dioxide]
inhibition of MAP-induced hyperlocomotion (accumulated locomotion counts 0-120 min): significant inhibition

O=S1(=O)CCN2C=CC=C(c3ccc(OC4CCCCC4)cc3)C2=N1 [D, 9-[4-(cyclohexyloxy)phenyl]-3,4-dihydropyrido[2,1-c][1,2,4]thiadiazine 2,2-dioxide]
inhibition of MAP-induced hyperlocomotion (accumulated locomotion counts 0-120 min): significant inhibition
